# Reference: US11059807B2, “Amine cationic lipids and uses thereof” (Dicerna Pharmaceuticals, Inc., priority 2011, dated 2021)
# How the values were obtained:
# [1] = system: HPRT1 mRNA in mouse liver; test: In vivo knockdown of HPRT1 mRNA in mouse liver, lipid particles with DsiRNA; settings: CD1 mice; for % mRNA Knockdown: single IV dose 5 mg/kg, HPRT1 DsiRNA; for % mRNA Knockdown / mrna remaining at 5 mg/kg: 48 hours; for gene silencing at the lower dose: single dose 1 mg/kg, FIG. 12; for mrna remaining at 5 mg/kg: Mus musculus, single dose 5 mg/kg, FIG. 11, read-out: remaining mRNA levels
# Protocol: Formulations were prepared with the following approximate percentages: 20 mol % of one of either L-1, L-2, L-5, L-6, L-7, L-8, L-22, or L-30; 26 mol % of DODMA; 3 mol % of PEG2000-DMPE; 3 mol % of PEG2000-DMG; 13 mol % of DSPC; and 33 mol % of cholesterol. The formulation further included a DsiRNA:total lipid ratio of about 1:20 (w/w).
# Approximately 4-week old CD1 female mice were administered a single dose (either 1 mg/kg or 5 mg/kg) of the lipid particle formulation with a dosing volume of 10 μL/g of body weight by intravenous administration via a tail vein. After 48 hours (post-dosing), tissues were collected in RNALater (Qiagen). In the end point analysis, the total RNA was isolated from the mouse liver for RT-qPCR. The RNA sample was heated at 70° C., for 5 minutes with Oligo(dT) primers before RT. In the PCR reaction, mHPRT expression was normalized with RPL23 (a housekeeping gene, used as a control herein). FIGS. 11 and 12 show data with error bars with mean±SD for n=5 animals/group.
# [2] = TNS fluorescence method, apparent pKa of lipid in formulation; assay type: physicochemical; settings: apparent pKa of the formulation, pH at half-maximal TNS fluorescence
# Description: The TNS fluorescence method may be used to determine the apparent pKa of the lipid in the formulation. TNS (2-(p-toluidino)-6-naphthalene sulfonic acid) is a negatively charged fluorescent dye whose fluorescence is quenched in the presence of water. […] The increase in the fluorescence can thus be used to estimate the ionization of a cationic lipid when present in different pH environment. Methods of determining pKa using TNS are known in the art, e.g., as described in the Examples.
# To determine pKa values of the cationic lipids of the invention, formulations (concentration of 1 mM) were incubated in phosphate buffer at different pH values, to which TNS dissolved in DMSO was added (resulting final concentration of 6 μM TNS). Fluorescence of the resulting solution was measured on a SpectraMax® M3 fluorescence plate reader with excitation wavelength of 325 nm and emission wavelength of 435 nm. The measured fluorescence of TNS was fitted with a three-parameter sigmoidal function shown in equation 1.
# The pH at which half of the maximum fluorescence was reached was reported as the apparent pKa of the formulation, where a and b are dimensionless parameters reflecting the maximum observed fluorescence and slope of the sigmoidal function, respectively.
# [3] = Tolerability of lipid formulations in CD-1 mice (serum clinical chemistry, body weight, liver); assay type: in vivo, mouse; settings: female CD-1 mice, 2 doses (qod) 10 mg/kg DsiRNA
# Protocol: In order to assess the tolerability of a lipid formulation containing an amino-amine or amino-amide cationic lipid of the invention and a dsRNA, female CD-1 mice were injected with L-6 and L-30 formulations [administered in 2 doses (qod) at 10 mg/kg DsiRNA dose, about 200 mg/kg total lipid dose each] and serum samples were collected 48 hours after the second dose. Serum samples were tested for a panel of clinical chemistry assessments, including liver function tests (LFTs) via measurement of enzymes alanine transaminase (ALT) and aspartate transaminase (AST). Phosphate buffered saline (PBS) was used as vehicle control group. ALT and AST elevation was <3x of PBS group for formulations L-6 and L-30. There were also no changes in body weight or liver observed for L-6 and L-30 formulations. Thus, L-6 and L-30 formulations were well-tolerated. Thus, any of the lipids described herein, and formulations thereof, would be useful for the delivery of one or more agent, e.g., polyanionic or antisense payloads.
# [4] = system: HPRT1 mRNA in liver tissues; test: HepG2 orthotopic liver tumor model: HPRT1 mRNA knockdown in liver; assay type: in vivo, mouse; settings: 5 mg/kg DsiRNA IV, Table 8 formulation, FIG. 14
# Description: In order to assess the efficiency of targeting and subsequent functionality of an amino-amine or amino-amide cationic lipid formulation of dsRNA, a second intrahepatic tumor model was utilized. Liver tumors were established in mice by direct intrahepatic injection of HepG2 tumor cells. Female nu/nu mice were used as hosts for the HepG2 tumors. Maintaining the mice under anesthesia using Avertin (Sigma), a single 1-cm incision across the midline was made below the sternum, and the left lateral hepatic lobe is exteriorized. Approximately 3×10^6 HepG2 cells suspended in 60 μL of 50% PBS/50% Matrigel™ (BD) are injected slowly into the lobe at a shallow angle using a Hamilton syringe and a 30-gauge needle. A swab was then applied to the puncture wound to stop any bleeding prior to suturing. Mice were allowed to recover from anesthesia in a sterile cage and monitored closely for 2-4 hours before being returned to conventional housing. About three weeks after tumor implantation, mice were randomized into treatment groups. […] The dose was calculated based on mg of dsRNAs/kg of body weight basis according to individual animal weights. […] Body weights were monitored throughout the duration of the study as an indicator of developing tumor burden and treatment tolerability. For efficacy studies, defined humane end points were determined as a surrogate for survival. […]
# [5] = system: Hep3B tumor; test: Hepatocellular carcinoma anti-tumor efficacy, orthotopic Hep3B model (serum AFP, tumor weight); assay type: in vivo, mouse; settings: 5 mg/kg active DsiRNA IV, vs control payload and PBS; for reducing serum AFP: FIG. 15; for reducing tumor weight: FIG. 16
# Description: Liver tumors were established in mice by direct intrahepatic injection of Hep3B tumor cells as described in Example 10. About two weeks after tumor implantation, mice were randomized into treatment groups. Mice (n=6 per group) received: either (1) the amino-amine or amino-amide lipid formulation of a control dsRNA; (2) the amino-amine or amino-amide lipid formulation of an active dsRNA; or (3) vehicle control, as administered by standard intravenous (i.v.) injection via the lateral tail vein. The dose was calculated based on mg of dsRNAs/kg of body weight basis according to individual animal weights. In the experiments that generated the results shown in FIGS. 15 and 16, animals were dosed at 5 mg/kg DsiRNA with L-6- or L-30-formulated lipid particles. Table 8 above presents specific compositions of lipid formulations comprising the L-6 and L-30 lipids used in the instant studies.
# Body weights were monitored throughout the duration of the study as an indicator of developing tumor burden and treatment tolerability. For efficacy studies, defined humane end points were determined as a surrogate for survival. Assessments were made based on a combination of clinical signs, weight loss, and abdominal distension to define the day of euthanization due to tumor burden. Tumor tissues were removed from the animals of different treatment groups and tumor weights were measured to determine efficacy of different treatment groups. Serum α-fetoprotein (AFP) levels were also measured as a biomarker for tumor burden.
SMILES,% mRNA Knockdown [1] [%],gene silencing at the lower dose [1],mrna remaining at 5 mg/kg [1] [%],pKa [2],changes in body weight or liver [3],tolerability [3],delivery of anti-HPRT1 DsiRNA payload to liver tissues [4],reducing serum AFP [5],reducing tumor weight [5]
CCCCC/C=C\C/C=C\CCCCCCCCC(CCCCCCCC/C=C\C/C=C\CCCCC)N1CCN(C)CC1 [Compound L-6],88.2,effective gene silencing,15 to 45,5.6,no changes,well-tolerated,remarkably effective,remarkably effective,remarkably effective
CCCCC/C=C\C/C=C\CCCCCCCCC(CCCCCCCC/C=C\C/C=C\CCCCC)NC(=O)CN(C)C [Compound L-30],86.4,effective gene silencing,~15,5.8,no changes,well-tolerated,remarkably effective,remarkably effective,remarkably effective
